# pIC50: −log10 of the molar value. Where “and” joins values, the source holds several entries; their conditions need not be identical. Equal values may be shown once.
# Target: JNK1 (Homo sapiens, UniProt P45983)
# Assay: DELFIA kinase assay, JNK1
# Assay type: biochemical
# Settings: DELFIA assay, 2 nM JNK1, 7 uM ATP, 10 min pre-incubation; second table; read-out: JNK 1 IC50
# Description: Assay DELFIA (Dissociation Enhanced Lanthanide Fluorescence Immuno-Assay) Assay:
# Before initiation of kinase reactions, compounds were pre-incubated with the enzyme for 10 minutes. Pre-incubation reactions contained 50 mM HEPES pH 7.3, 10 mM MgCl2, 1 mM DTT, 75 mM NaCl, 1 mM EDTA, 1 mM EGTA, 0.01% CHAPS, 2 nM JNK1, 6 ug/mL biotinylated GST-ATF2, 0.1 mg/ml BSA, 5% DMSO and 0-100 μM compound in a total volume of 40 μL. After a 10 minute room temperature pre-incubation, 10 μL of 35 μM ATP was added to start the reaction (final concentration of ATP=7 uM). Reactions were incubated at room temperature for 30 minutes. A small aliquot (10 uL) was taken and quenched by adding into 190 uL of DELFIA Assay buffer containing 100 mM EDTA. The amount of phosphate transferred to biotinylated GST-ATF2 was measured using the Dissociation Enhanced Lanthanide Fluorescence Immuno-assay (DELFIA) from Perkin Elmer according to manufacturers protocol. Briefly, biotinylated GST-ATF2 was captured on streptavidin coated plates for 1 hour, washed twice, then incubated for 1 hour with a 1:1000 dilution of rabbit-anti-phospho-ATF2 antibody and a 1:3500 dilution of Europium-labeled anti-rabbit secondary antibody. Free antibody was removed with six washes, Europium was dissociated from the antibody, and Europium fluorescence was measured using an excitation wavelength of 340 nm and an emission wavelength of 615 nm. JNK2 and JNK3 kinase reactions were carried out similarly, with the exception that the final concentration of ATP was 4 uM and 2 uM, respectively.
# Sequence of JNK1 (P45983 whole entry, species assumed): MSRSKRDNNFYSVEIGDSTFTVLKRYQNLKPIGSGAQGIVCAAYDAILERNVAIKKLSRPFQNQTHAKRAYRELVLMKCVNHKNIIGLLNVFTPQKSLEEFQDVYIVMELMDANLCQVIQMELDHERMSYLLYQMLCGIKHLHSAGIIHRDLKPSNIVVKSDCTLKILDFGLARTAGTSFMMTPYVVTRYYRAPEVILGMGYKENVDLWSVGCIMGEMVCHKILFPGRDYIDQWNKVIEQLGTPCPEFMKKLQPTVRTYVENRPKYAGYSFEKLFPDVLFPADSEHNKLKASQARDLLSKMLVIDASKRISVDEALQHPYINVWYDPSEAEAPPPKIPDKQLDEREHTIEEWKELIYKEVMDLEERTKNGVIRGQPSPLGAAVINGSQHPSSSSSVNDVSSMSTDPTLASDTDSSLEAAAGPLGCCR
row,Compound,pIC50
1,CC(C)NC(=O)c1cccc(C(=O)NCc2cnn(-c3ccc(S(N)(=O)=O)cc3)c2)n1 [Compound 241],8.15

# Same assay, conditions: DELFIA, biotinylated GST-ATF2 substrate, 10 minute pre-incubation, final ATP 7 uM
row,Compound,pIC50
1,C[C@H](CO)NC(=O)c1cc(-c2cccs2)cc(C(=O)NCc2ccc(S(C)(=O)=O)cc2)n1 [Compound 417],< 6.00 and 5.00 to 5.99
2,CC(C)NC(=O)c1cccc(C(=O)NCc2ccc3nc(NC(=O)N(C)C)sc3c2)n1 [Compound 207],7.01 to 8.40
3,CCOC(=O)N1CCC(NC(=O)c2cccc(C(=O)NCc3ccc(-n4cccn4)cc3)n2)CC1 [Compound 72],6.02 to 6.99
4,CCOC(=O)N1CCC(NC(=O)c2cccc(C(=O)NCc3ccncc3)n2)CC1 [Compound 42],< 6.00
5,CCOC(=O)N1CCC(NC(=O)c2cccc(C(=O)N(C)C)n2)CC1 [Compound 38],< 6.00
6,O=C(NCc1cccnc1)c1cccc(-n2cc(I)cn2)n1 [Compound 289],6.02 to 6.99
7,Nc1nc2ccc(CNC(=O)c3cccc(C(=O)NCCN4CCOCC4)n3)cc2s1 [Compound 26],< 6.00
8,CCOC(=O)N1CCC(NC(=O)c2cccc(NC(C)=O)n2)CC1 [Compound 399],< 6.00 and 5.00 to 5.99
9,CC(C)NC(=O)c1cccc(C(=O)NCc2ccc(-c3ccc(C#N)cc3)nc2)n1 [Compound 179],6.02 to 6.99
10,CC(C)NC(=O)c1cccc(C(=O)NCc2cnn(-c3cc(F)cc(C#N)c3)c2)n1 [Compound 162],6.02 to 6.99
11,Cc1nc2ccc(CNC(=O)c3cccc(-n4cc(I)cn4)n3)cc2[nH]1 [Compound 290],6.02 to 6.99
12,CC(C)NC(=O)c1cccc(C(=O)NCc2nc3ccccc3n2C)n1 [Compound 107],< 6.00 and 5.00 to 5.99
13,CCNC(=O)c1cc(Cl)cc(C(=O)NCc2ccc(S(C)(=O)=O)cc2)n1 [Compound 408],< 6.00 and 5.00 to 5.99
14,CC(C)NC(=O)c1cccc(C(=O)NCc2cnn(-c3ccc(Cl)cc3)c2)n1 [Compound 133],7.01 to 8.40
15,CC(C)NC(=O)c1cccc(C(=O)NCc2ccc(-c3cccc(S(C)(=O)=O)c3)nc2)n1 [Compound 180],6.02 to 6.99
16,CC(C)NC(=O)c1cccc(C(=O)NCc2cnn(-c3ccc(S(=O)(=O)N4CCNCC4)cc3)c2)n1 [Compound 245],7.72 to 8.40 and 7.01 to 8.40
17,Nc1nc2ccc(CNC(=O)c3cccc(C(=O)NC4CC4)n3)cc2s1 [Compound 48],6.02 to 6.99
18,CS(=O)(=O)c1ccc(CNC(=O)c2cccc(-c3ccccn3)n2)cc1 [Compound 317],< 6.00 and 5.00 to 5.99
19,CC(C)CNC(=O)c1cccc(C(=O)NCc2ccc3nc(N)sc3c2)n1 [Compound 64],< 6.00
20,CS(=O)(=O)c1ccc(CNC(=O)c2cccc(C(=O)NC3CCN(c4ccccn4)CC3)n2)cc1 [Compound 273],6.02 to 6.99

row,Compound,pIC50
1,CC(CO)NC(=O)c1cccc(C(=O)NCc2ccc3nc(N)sc3c2)n1 (stereo not drawn) [Compound 18],6.02 to 6.99
2,CS(=O)(=O)c1ccc(CNC(=O)c2cccc(-c3ccccc3F)n2)cc1 [Compound 316],< 6.00 and 5.00 to 5.99
3,CC(C)NC(=O)c1cccc(C(=O)NCc2cnn(-c3ccc(S(N)(=O)=O)cc3)c2)n1 [Compound 241],7.01 to 8.40 and 7.72 to 8.40
4,CCNC(=O)c1cccc(C(=O)NC2CCN(C(=O)OCC)CC2)n1 [Compound 39],< 6.00
5,CNc1nc2ccc(CNC(=O)c3cccc(C(=O)NC(C)C)n3)cc2s1 [Compound 200],7.01 to 8.40
6,CS(=O)(=O)c1ccc(CNC(=O)c2cccc(-c3ccc4c(c3)OCO4)n2)cc1 [Compound 332],6.02 to 6.99
7,CC(C)NC(=O)c1cccc(C(=O)NCc2cnn(-c3cncc(F)c3)c2)n1 [Compound 153],7.01 to 8.40
8,COC(=O)Nc1cccc(C(=O)NCc2cnn(-c3cccc(C(F)(F)F)c3)c2)n1 [Compound 355],6.02 to 6.99
9,CS(=O)(=O)c1ccc(CNC(=O)c2cccc(-n3cc(-c4ccc(F)cc4)cn3)n2)cc1 [Compound 321],< 6.00 and 5.00 to 5.99
10,CCNC(=O)c1cc(-c2cccs2)cc(C(=O)NCc2ccc(S(C)(=O)=O)cc2)n1 [Compound 415],< 6.00 and 5.00 to 5.99
11,COC(=O)[C@H](C)NC(=O)c1cccc(C(=O)NCc2ccc3nc(N)sc3c2)n1 [Compound 75],6.02 to 6.99
12,CC(C)NC(=O)c1cccc(C(=O)NCc2ccc(-c3ccc(S(C)(=O)=O)cc3)cc2)n1 [Compound 196],6.02 to 6.99
13,Cc1nc2ccc(CNC(=O)c3cccc(C(=O)NC(C)C)n3)cc2n1C [Compound 128],6.02 to 6.99
14,CCNC(=O)N1CCC(NC(=O)c2cccc(C(=O)NCc3ccc(S(C)(=O)=O)cc3)n2)CC1 [Compound 56],< 6.00
15,O=C(NCc1cnn(-c2cccc(C(F)(F)F)c2)c1)c1cccc(N2CCC(c3ccccn3)C2)n1 (stereo not drawn) [Compound 346],5.00 to 5.99 and < 6.00
16,CC(C)NC(=O)c1cccc(C(=O)NCc2ccc(-c3ccc4ncccc4c3)nc2)n1 [Compound 186],6.02 to 6.99
17,CCOC(=O)N1CCC(NC(=O)c2cccc(NCc3cccnc3)n2)CC1 [Compound 391],< 6.00
18,CC(C)NC(=O)c1cccc(C(=O)NCc2nccs2)n1 [Compound 104],5.00 to 5.99 and < 6.00
19,Nc1nc2ccc(CNC(=O)c3cccc(C(=O)NC[C@H](O)c4ccccc4)n3)cc2s1 [Compound 25],6.02 to 6.99
20,Cc1cccc(-n2cc(CNC(=O)c3cccc(C(=O)NC(C)C)n3)cn2)c1 [Compound 129],7.01 to 8.40 and 7.72 to 8.40

row,Compound,pIC50
1,CN1CCC(NC(=O)c2cccc(C(=O)NCc3ccc4nc(N)sc4c3)n2)CC1 [Compound 29],< 6.00
2,Cc1ccnn1-c1cccc(C(=O)NCc2ccc(S(C)(=O)=O)cc2)n1 [Compound 325],5.00 to 5.99 and < 6.00
3,CS(=O)(=O)c1ccc(-n2cc(CNC(=O)c3cccc(-n4cc(I)cn4)n3)cn2)cc1 [Compound 292],7.01 to 8.40
4,CC(C)[C@H](CO)NC(=O)c1cccc(C(=O)NCc2ccc3nc(N)sc3c2)n1 [Compound 59],< 6.00
5,CC(C)NC(=O)c1cccc(C(=O)NCc2cnn(-c3ncccn3)c2)n1 [Compound 160],6.02 to 6.99
6,COc1ccc(F)cc1-c1cccc(C(=O)NCc2ccc(S(C)(=O)=O)cc2)n1 [Compound 329],6.02 to 6.99
7,Nc1nc2ccc(CNC(=O)c3cccc(C(=O)NCCc4ccccc4)n3)cc2s1 [Compound 27],< 6.00
8,CC(C)CNc1cccc(C(=O)NCc2ccc(S(C)(=O)=O)cc2)n1 [Compound 337],< 6.00 and 5.00 to 5.99
9,COC(=O)c1cccc(C2CCN(C(=O)c3cccc(C(=O)NCc4ccc5nc(N)sc5c4)n3)CC2O)c1 (stereo not drawn) [Compound 32],< 6.00
10,CCOC(=O)N1CCC(NC(=O)c2cccc(C(=O)NCc3ccc(OC)c(OC)c3)n2)CC1 [Compound 74],6.02 to 6.99
11,CC(C)C[C@@H](CO)NC(=O)c1cccc(C(=O)NCc2ccc3nc(N)sc3c2)n1 [Compound 20],< 6.00
12,CC(C)NC(=O)c1cccc(C(=O)NCc2cnn(C)c2)n1 [Compound 116],< 6.00 and 5.00 to 5.99
13,CC(=O)Nc1cccc(C(=O)NCc2cnn(-c3cccc(C(F)(F)F)c3)c2)n1 [Compound 353],6.02 to 6.99
14,CNC(=S)N1CCC(NC(=O)c2cccc(C(=O)NCc3ccc(S(C)(=O)=O)cc3)n2)CC1 [Compound 57],6.02 to 6.99
15,CC(C)NC(=O)c1cccc(C(=O)NCc2ccc3nc(NCCN4CCOCC4)sc3c2)n1 [Compound 202],7.01 to 8.40
16,Cc1cccc(-n2cc(CNC(=O)c3nc(C(=O)NC(C)C)ccc3F)cn2)c1 [Compound 429],6.02 to 6.99
17,CCOC(=O)N1CCC(NC(=O)c2cccc(NC(=O)Cc3ccc4c(c3)OCO4)n2)CC1 [Compound 401],< 6.00 and 5.00 to 5.99
18,COc1ccc(CNC(=O)c2cccc(C(=O)NC(C)C)n2)cc1OC [Compound 111],6.02 to 6.99
19,CC(C)NC(=O)c1cccc(C(=O)NCc2ccc(-c3ccccn3)s2)n1 [Compound 118],6.02 to 6.99

# — patent US8278337B2, “Substituted pyridines that are JNK inhibitors” (Merck Sharp & Dohme, priority 2006, dated 2012)
